Source: US10300066B2, “Polyfluorinated compounds acting as bruton tyrosine kinase inhibitors” (ZHEJIANG DTRM BIOPHARMA CO. LTD., priority 2014, dated 2019)

Key:
[1] = 28-day toxicokinetic (TK) study in rats; type: in vivo, rat; conditions: for AUC: rat, in vivo, read-out: AUC (area under the curve)
[2] = Toxicity and TK studies, 28-day rat and dog; conditions: 28-day rat and dog studies
From the text: Toxicity and toxicokinetic (TK) studies of the compounds can be performed by well known methods.

[3] = 28-day toxicokinetic (TK) study in dogs; type: in vivo, dog; conditions: for AUC: dog, in vivo, 15 mg/kg
[4] = 100 mg/kg, Study Day 28, Female
[5] = 45 mg/kg/day, Study Day 1, Female

SMILES: C=CC(=O)N1CC[C@@H](n2nc(-c3ccc(Oc4c(F)c(F)cc(F)c4F)cc3F)c3c(N)ncnc32)C1 [Compound 45, 1-((R)-3-(4-amino-3-(2-fluoro-4-(2,3,5,6-tetrafluorophenoxy)phenyl)-1H-pyrazolo[3,4-d]pyrimidin-1-yl)pyrrolidin-1-yl)prop-2-en-1-one]
- AUC compared to ibrutinib [1]: significantly higher
- Cmax ([1]; 40 mg/kg, Study Day 1, Female): 2660 ng/mL
- Cmax ([1]; 40 mg/kg, Study Day 28, Male): 2090 ng/mL
- AUC0-24 h [1, 4]: 29600 ng·h/mL
- Cmax [1, 4]: 3830 ng/mL
- AUC0-24 h ([1]; 100 mg/kg, Study Day 28, Male): 30300 ng·h/mL
- Cmax ([1]; 200 mg/kg, Study Day 28, Male): 4540 ng/mL
- AUC ([1]; 40 mg/kg, female): 17300 ng·h/mL
- AUC ([1]; 40 mg/kg, male): 13700 ng·h/mL
- Bioavailability compared to ibrutinib [2]: superior bioavailability
- Drug exposure, Day 1 versus Day 28 [2]: no significant difference
- Drug exposure, male versus female [2]: no significant difference
- Pharmacokinetics compared to ibrutinib [2]: excellent pharmacokinetics
- Toxicity compared to ibrutinib [2]: low toxicity
- AUC compared to ibrutinib [3]: significantly higher
- AUC0-24 h [3, 5]: 6220 ± 3000 ng·h/mL
- Cmax [3, 5]: 1220 ± 431 ng/mL
- Cmax ([3]; 150 mg/kg/day, Study Day 1, Male): 2460 ± 858 ng/mL
- AUC ([3]; female): 2930 ng·h/mL
- AUC ([3]; male): 3550 ng·h/mL
